Data published in patent US20240043435A1, “TYK-2 INHIBITOR” (BEIGENE, LTD., priority 2020, published 2024).

Columns and labels:
[1] = test system: JAK2, TYK2/p-STAT4 (Tyr693) activated by IL-12 in NK-92 cell line; test: IL-12-JAK2, TYK2/p-STAT4 (Tyr693) inhibition IC50 cellular assay; format: cell-based; settings: for IC50: NK92, Cellular assay, read-out: pSTAT4/IL-12 IC50; for Selectivity fold (TYK2/JAK2): Cellular assay, pSTAT5/GM-CSF IC50 vs pSTAT4/IL-12 IC50
Procedure, shortened: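 NK-92 cells were starved overnight without IL-2 and preincubated 1 h at 37° C with compound (8 doses, 10000–0.61 nM, 4-fold, 0.2% DMSO). They were then stimulated with IL-12 (40 ng/ml final) for 30 min. Lysate p-STAT4 (Tyr693) was read by AlphaLISA SureFire; IC50 from four-parameter logistic fit.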

pSTAT5/GM-CSF = pSTAT5/GM-CSF cellular assay (JAK2 selectivity); format: cell-based; settings: for Selectivity fold (TYK2/JAK2): pSTAT5/GM-CSF vs pSTAT4/IL-12
[2] = biological target: T1, TYK2-JH2 (aa 575-869, in-house) protein (Homo sapiens, UniProt P29597); test: TYK2-JH2 biochemical assay (HTRF probe displacement); format: binding; settings: Biochemical assay; read-out: TYK2-JH2 IC50
T1 construct: TYK2-JH2 (aa 575-869, in-house) protein; made in house
T1 sequence (P29597 575-869): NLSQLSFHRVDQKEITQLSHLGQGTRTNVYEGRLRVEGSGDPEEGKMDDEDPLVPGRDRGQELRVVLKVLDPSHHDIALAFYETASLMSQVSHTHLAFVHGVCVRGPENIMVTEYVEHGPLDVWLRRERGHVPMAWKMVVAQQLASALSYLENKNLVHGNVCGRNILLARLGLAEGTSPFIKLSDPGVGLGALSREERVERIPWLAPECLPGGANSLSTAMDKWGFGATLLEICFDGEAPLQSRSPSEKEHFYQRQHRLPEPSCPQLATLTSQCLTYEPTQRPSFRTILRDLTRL
Procedure, shortened: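 Recombinant TYK2-JH2 (0.2 nM) was pre-incubated 0.5 h at room temperature with compounds (10 doses, 5-fold dilution; 500× DMSO stocks from 500 uM) in 20 mM HEPES pH 7.5, 10 mM MgCl2, 0.005% BSA, 2 mM DTT, 0.015% Brij-35. Probe displacement was read by HTRF (ex337, em620/665 nm); IC50 from four-parameter logistic fit.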

Row | Structure (SMILES) | IC50 [1] [nM] | IC50 (pSTAT5/GM-CSF) [nM] | IC50 [2] [nM] | Selectivity fold (TYK2/JAK2) (pSTAT5/GM-CSF) [fold] | Selectivity fold (TYK2/JAK2) [1] [fold]
1 | CC(=O)Nc1cc(Nc2cccc(S(C)(=O)=O)n2)c(-c2ccc(N3CCOCC3=O)cn2)cn1 [Example G2, N-(4′-((6-(methylsulfonyl)pyridin-2-yl)amino)-5-(3-oxomorpholino)-[2,3′-bipyridin]-6′-yl)acetamide] | 14.2 | > 10000 | 0.067 | >704 | 
2 | CC(=O)Nc1cc(Nc2cc(OCCO)cc(S(C)(=O)=O)n2)c(-c2ccc(N3CCOCC3=O)cn2)cn1 [Example G3, N-(4′-((4-(2-hydroxyethoxy)-6-(methylsulfonyl)pyridin-2-yl)amino)-5-(3-oxomorpholino)-[2,3′-bipyridin]-6′-yl)acetamide] | 224 | > 10000 | 0.05 | >44 | 
3 | COCCOc1cc(Nc2cc(NC(C)=O)ncc2-c2ccc(N3CCOCC3=O)cn2)nc(S(C)(=O)=O)c1 [Example G4, N-(4′-((4-(2-methoxyethoxy)-6-(methylsulfonyl)pyridin-2-yl)amino)-5-(3-oxomorpholino)-[2,3′-bipyridin]-6′-yl)acetamide] | 16 | > 10000 | 0.048 | >625 | 
4 | CC(=O)Nc1cc(Nc2cc(OC(C)C)cc(S(C)(=O)=O)n2)c(-c2ccc(C(C)(C)O)cn2)cn1 [Example H2, N-(5-(2-hydroxypropan-2-yl)-4′-((4-isopropoxy-6-(methylsulfonyl)pyridin-2-yl)amino)-[2,3′-bipyridin]-6′-yl)acetamide] | 0.939 | > 10000 | 0.036 |  | >10649
5 | COCCOc1cc(Nc2cc(NC(C)=O)ncc2-c2ccc(C(C)(C)O)cn2)nc(S(C)(=O)=O)c1 [Example H6, N-(5-(2-hydroxypropan-2-yl)-4′-((4-(2-methoxyethoxy)-6-(methylsulfonyl)pyridin-2-yl)amino)-[2,3′-bipyridin]-6′-yl)acetamide] | 1.25 | 8870 | 0.014 |  | 7097
6 | COC(C)COc1cc(Nc2cc(NC(C)=O)ncc2-c2ccc(C(C)(C)O)cn2)nc(S(C)(=O)=O)c1 (stereo not shown) [Example H7, N-(5-(2-hydroxypropan-2-yl)-4′-((4-(2-methoxypropoxy)-6-(methylsulfonyl)pyridin-2-yl)amino)-[2,3′-bipyridin]-6′-yl)acetamide] | 1.22 | > 10000 | 0.046 |  | >8196
7 | CC(=O)Nc1cc(Nc2cc(OCCO)cc(S(C)(=O)=O)n2)c(-c2ccc(C(C)(C)O)cn2)cn1 [Example H8, N-(4′-((4-(2-hydroxyethoxy)-6-(methylsulfonyl)pyridin-2-yl)amino)-5-(2-hydroxypropan-2-yl)-[2,3′-bipyridin]-6′-yl)acetamide] | 21.7 | > 10000 | 0.041 |  | >461
8 | CC(=O)Nc1cc(Nc2cc(O[C@H]3C[C@H](O)C3)cc(S(C)(=O)=O)n2)c(-c2ccc(C(C)(C)O)cn2)cn1 [Example H10] | 16.4 | > 10000 | 0.017 |  | >607
9 | CC(=O)Nc1cc(Nc2cc(OCC3COC3)cc(S(C)(=O)=O)n2)c(-c2ccc(C(C)(C)O)cn2)cn1 [Example H12, N-(5-(2-hydroxypropan-2-yl)-4′-((6-(methylsulfonyl)-4-(oxetan-3-ylmethoxy)pyridin-2-yl)amino)-[2,3′-bipyridin]-6′-yl)acetamide] | 5.1 | > 10000 | 0.022 |  | >1960

More lines, main results first:

Row | IC50 [1] [nM] | IC50 (pSTAT5/GM-CSF) [nM] | IC50 [2] [nM] | Structure (SMILES) | Selectivity fold (TYK2/JAK2) (pSTAT5/GM-CSF) [fold] | Selectivity fold (TYK2/JAK2) [1] [fold]
10 | 8.52 | 7180 | 0.048 | CC(=O)Nc1cc(Nc2cc(C(F)(F)F)cc(S(C)(=O)=O)c2)c(-c2ccc(C(C)(C)O)cn2)cn1 [Example H3, N-(5-(2-hydroxypropan-2-yl)-4′-((3-(methylsulfonyl)-5-(trifluoromethyl)phenyl)amino)-[2,3′-bipyridin]-6′-yl)acetamide] |  | >843
11 | 0.323 | 1680 | 0.015 | CC(=O)Nc1cc(Nc2cccc(S(C)(=O)=O)n2)c(-c2ccc(C(C)(C)O)cn2)cn1 [Example H5, N-(5-(2-hydroxypropan-2-yl)-4′-((6-(methylsulfonyl)pyridin-2-yl)amino)-[2,3′-bipyridin]-6′-yl)acetamide] |  | 5185
12 | 0.503 | 1580 | 0.016 | CC(=O)Nc1cc(Nc2cc(C)cc(S(C)(=O)=O)n2)c(-c2ccc(C(C)(C)O)cn2)cn1 [Example H9, N-(5-(2-hydroxypropan-2-yl)-4′-((4-methyl-6-(methylsulfonyl)pyridin-2-yl)amino)-[2,3′-bipyridin]-6′-yl)acetamide] |  | 3147
13 | 0.676 | 4080 | 0.042 | COCc1cc(Nc2cc(NC(C)=O)ncc2-c2ccc(C(C)(C)O)cn2)nc(S(C)(=O)=O)c1 [Example H13, N-(5-(2-hydroxypropan-2-yl)-4′-((4-(methoxymethyl)-6-(methylsulfonyl)pyridin-2-yl)amino)-[2,3′-bipyridin]-6′-yl)acetamide] |  | 6028
14 | 0.727 | > 10000 | 0.034 | CC(=O)Nc1cc(Nc2cc(C#N)cc(S(C)(=O)=O)n2)c(-c2ccc(C(C)(C)O)cn2)cn1 [Example H14, N-(4′-((4-cyano-6-(methylsulfonyl)pyridin-2-yl)amino)-5-(2-hydroxypropan-2-yl)-[2,3′-bipyridin]-6′-yl)acetamide] |  | >13755
15 | 4.89 | > 10000 | 0.029 | COCCOc1cc(Nc2cc(NC(C)=O)ncc2-c2ccc(C(C)(C)O)cn2)cc(S(C)(=O)=O)c1 [Example H15, N-(5-(2-hydroxypropan-2-yl)-4′-((3-(2-methoxyethoxy)-5-(methylsulfonyl)phenyl)amino)-[2,3′-bipyridin]-6′-yl)acetamide] |  | >2044
16 | 7.51 | > 10000 | 0.028 | COCc1cc(Nc2cc(NC(C)=O)ncc2-c2ccc(C(C)(C)O)cn2)cc(S(C)(=O)=O)c1 [Example H16, N-(5-(2-hydroxypropan-2-yl)-4′-((3-(methoxymethyl)-5-(methylsulfonyl)phenyl)amino)-[2,3′-bipyridin]-6′-yl)acetamide] |  | >1331
17 | 67 | > 10000 | 0.034 | CC(=O)Nc1cc(Nc2cc(N3CCC(O)C3)cc(S(C)(=O)=O)c2)c(-c2ccc(C(C)(C)O)cn2)cn1 (stereo not shown) [Example H17, N-(5-(2-hydroxypropan-2-yl)-4′-((3-(3-hydroxypyrrolidin-1-yl)-5-(methylsulfonyl)phenyl)amino)-[2,3′-bipyridin]-6′-yl)acetamide] |  | >149
18 | 5.54 | > 10000 | 0.032 | CC(=O)Nc1cc(Nc2cc(OC(F)(F)F)cc(S(C)(=O)=O)c2)c(-c2ccc(C(C)(C)O)cn2)cn1 [Example H18, N-(5-(2-hydroxypropan-2-yl)-4′-((3-(methylsulfonyl)-5-(trifluoromethoxy)phenyl)amino)-[2,3′-bipyridin]-6′-yl)acetamide] |  | >1805
19 | 3.2 | > 10000 | 0.028 | CC(=O)Nc1cc(Nc2cc(F)cc(S(C)(=O)=O)c2)c(-c2ccc(C(C)(C)O)cn2)cn1 [Example H19, N-(4′-((3-fluoro-5-(methylsulfonyl)phenyl)amino)-5-(2-hydroxypropan-2-yl)-[2,3′-bipyridin]-6′-yl)acetamide] |  | >3125
20 | 35.2 | > 10000 | 0.046 | CC(=O)Nc1cc(Nc2cc(C#N)cc(S(C)(=O)=O)c2)c(-c2ccc(C(C)(C)O)cn2)cn1 [Example H20, N-(4′-((3-cyano-5-(methylsulfonyl)phenyl)amino)-5-(2-hydroxypropan-2-yl)-[2,3′-bipyridin]-6′-yl)acetamide] |  | >284
21 | 2.24 | > 10000 | 0.024 | CC(=O)Nc1cc(Nc2cc(C)cc(S(C)(=O)=O)c2)c(-c2ccc(C(C)(C)O)cn2)cn1 [Example H21, N-(5-(2-hydroxypropan-2-yl)-4′-((3-methyl-5-(methylsulfonyl)phenyl)amino)-[2,3′-bipyridin]-6′-yl)acetamide] |  | >4464
22 | 2.76 | > 10000 | 0.038 | CC(=O)Nc1cc(Nc2cc(OCC3CC3)cc(S(C)(=O)=O)c2)c(-c2ccc(C(C)(C)O)cn2)cn1 [Example H22, N-(4′-((3-(cyclopropylmethoxy)-5-(methylsulfonyl)phenyl)amino)-5-(2-hydroxypropan-2-yl)-[2,3′-bipyridin]-6′-yl)acetamide] |  | >3623
